According to PubChem BioAssay AID518 (Sanford-Burnham Center for Chemical Genomics, 2006):

target: Alkaline phosphatase, tissue-nonspecific isozyme (Homo sapiens) (UniProt P05186); test: inhibition of tissue-nonspecific alkaline phosphatase – biochemical, luminescent (AID 518); conditions: purified TNAP enzyme, luminescent substrate readout
Sequence (P05186 whole entry, looked up): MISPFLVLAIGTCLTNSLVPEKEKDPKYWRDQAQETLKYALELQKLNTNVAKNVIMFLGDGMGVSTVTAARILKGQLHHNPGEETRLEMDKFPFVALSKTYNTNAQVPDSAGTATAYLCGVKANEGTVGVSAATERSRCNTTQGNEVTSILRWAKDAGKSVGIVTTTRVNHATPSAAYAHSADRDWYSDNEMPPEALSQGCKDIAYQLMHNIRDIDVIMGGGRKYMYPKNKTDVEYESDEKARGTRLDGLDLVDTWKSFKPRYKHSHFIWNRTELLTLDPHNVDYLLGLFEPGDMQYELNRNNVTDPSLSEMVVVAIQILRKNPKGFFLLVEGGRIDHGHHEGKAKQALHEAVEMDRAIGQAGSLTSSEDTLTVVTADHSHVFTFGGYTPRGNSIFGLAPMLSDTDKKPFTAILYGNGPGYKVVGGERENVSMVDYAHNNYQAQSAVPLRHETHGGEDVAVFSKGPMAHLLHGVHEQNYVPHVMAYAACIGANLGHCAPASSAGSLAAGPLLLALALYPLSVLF

IC50, active:
C/C(N)=C(/C#N)C(=O)CSc1n[nH]c(-c2ccccc2Br)n1 1730 nM
O=C1C2CC=CCC2C(=O)N1c1n[nH]c(Cc2ccccc2)n1 (stereo not drawn) 330 nM
COCc1[nH]nc2c1C(c1cc(OC)c(O)c(OC)c1)C(C#N)=C(N)O2 (stereo not drawn) 5250 nM
